According to paper PMC3703888, “Integration of Different “-omics” Technologies Identifies Inhibition of the IGF1R-Akt-mTOR Signaling Cascade Involved in the Cytotoxic Effect of Shikonin against Leukemia Cells” (Evidence-based Complementary and Alternative Medicine : eCAM, 2013):
Entries after “also recorded” stand apart in the source; their conditions may differ.

Legend:
p-ribosomal protein S6 = test: FlowCellect PI3K-mTOR signaling cascade assay (flow cytometry), p-ribosomal protein S6; type: cell-based; conditions: U937 cells, 0.3 μM shikonin, 24 h
Description: The FlowCellect PI3K-mTOR signaling cascade assay kit (Merck Millipore, Germany) was used to analyze the effect of shikonin on the PI3K-mTOR signaling pathway. The assay is based on two directly conjugated phospho-specific signaling antibodies against phosphorylated Akt and phosphorylated ribosomal S6 protein, which are both important signaling nodes of the mTOR cascade. The phosphorylation of Akt is indicative of the upstream PI3K signaling, marking the cells initiation into proliferation or cell survival. Phosphorylated-ribosomal S6 protein is indicative of downstream mTOR and p70S6K signaling leading to protein translation. The assay was performed according to the manufacture's protocol. Briefly, 1.5 × 10^6 U937 cells were treated with 0.3 μM shikonin or DMSO solvent control and incubated for 24 h. Subsequently, cells were fixed on ice for 20 min using the supplied fixation buffer. […] Subsequently, cells were measured in a LSR-Fortessa FACS analyzer (Becton-Dickinson, Germany) and shikonin fluorescence was compensated for the respective channels. For each sample, 1 × 10^4 cells were counted. The PerCP signal was measured with 488 nm excitation and detected using a 670/30 nm bandpass filter. The Alexa Fluor 488 signal was analyzed with 488 nm excitation and detected using a 530/30 nm bandpass filter. […] Cytographs were analyzed using FlowJo software (Celeza, Switzerland). […]

IGF1R = biological target: T1, IGF1R (Homo sapiens, UniProt P08069); test: Radiometric protein kinase assay (33PanQinase Activity Assay); type: biochemical; conditions: purified IGF1R kinase, nonlinear regression
T1 construct: purchased ProQinase GmbH (Freiburg, Germany)
Experimental: The kinase inhibition assay was performed by ProQinase GmbH (Freiburg, Germany). Shikonin was provided as 1.85 × 10^−3 M stock solution in DMSO. In the process, shikonin was serially diluted in semi-log steps with 100% DMSO in a 96-well microtiter plate. Directly before use, shikonin was further diluted 1 : 10 with water. Shikonin was tested at 10 final assay concentrations in the range from 1.85 × 10^−5 M to 5.55 × 10^−10 M. The final DMSO concentration in the reaction cocktails was 1% in all cases. A radiometric protein kinase assay (^33PanQinase Activity Assay) was used for measuring the kinase activity of IGF1R. All kinase assays were performed in 96-well FlashPlates from Perkin Elmer (Boston, MA, USA) in a 50 μL reaction volume. […] Incorporation of ^33Pi (counting of “cpm”) was determined with a Wallac MicroBeta scintillation counter (Perkin Elmer). […] Kinase activity was evaluated based on a comparison with experiments containing the complete reaction cocktail but no shikonin. A complete reaction cocktail without kinase served as control for unspecific binding of radioactivity to the plate in the absence of protein kinase but in the presence of shikonin. IC50 values were calculated by nonlinear regression using Prism 5.04 (Graphpad, CA, USA).

p-Akt = test: FlowCellect PI3K-mTOR signaling cascade assay (flow cytometry), p-Akt; type: cell-based; conditions: 24 h
Description: The FlowCellect PI3K-mTOR signaling cascade assay kit (Merck Millipore, Germany) was used to analyze the effect of shikonin on the PI3K-mTOR signaling pathway. The assay is based on two directly conjugated phospho-specific signaling antibodies against phosphorylated Akt and phosphorylated ribosomal S6 protein, which are both important signaling nodes of the mTOR cascade. The phosphorylation of Akt is indicative of the upstream PI3K signaling, marking the cells initiation into proliferation or cell survival. Phosphorylated-ribosomal S6 protein is indicative of downstream mTOR and p70S6K signaling leading to protein translation. The assay was performed according to the manufacture's protocol. Briefly, 1.5 × 10^6 U937 cells were treated with 0.3 μM shikonin or DMSO solvent control and incubated for 24 h. Subsequently, cells were fixed on ice for 20 min using the supplied fixation buffer. After fixation, cells were washed twice and treated with permeabilization buffer on ice for 20 min. After two further washing steps, cells were resuspended in a final volume of 90 μL assay buffer and incubated with 5 μL 20x anti-phospho-ribosomal protein S6 (Ser235) PerCP conjugated monoclonal antibody and 5 μL 20x anti-phospho-Akt1/PKBα (Ser473) Alexa Fluor 488 conjugated monoclonal antibody in the dark on ice for one hour. After antibody incubation, cells were centrifuged and resuspended in 500 μL assay buffer. Subsequently, cells were measured in a LSR-Fortessa FACS analyzer (Becton-Dickinson, Germany) and shikonin fluorescence was compensated for the respective channels. For each sample, 1 × 10^4 cells were counted. The PerCP signal was measured with 488 nm excitation and detected using a 670/30 nm bandpass filter. The Alexa Fluor 488 signal was analyzed with 488 nm excitation and detected using a 530/30 nm bandpass filter. All parameters were plotted on a logarithmic scale. Cytographs were analyzed using FlowJo software (Celeza, Switzerland). All experiments were performed at least in triplicate. Student's t-test was used for statistical analysis.

[1] = cytograph p-Akt / p-ribosomal protein S6, U937 cells, 0.3 μM

T1 sequence (P08069 31-1367): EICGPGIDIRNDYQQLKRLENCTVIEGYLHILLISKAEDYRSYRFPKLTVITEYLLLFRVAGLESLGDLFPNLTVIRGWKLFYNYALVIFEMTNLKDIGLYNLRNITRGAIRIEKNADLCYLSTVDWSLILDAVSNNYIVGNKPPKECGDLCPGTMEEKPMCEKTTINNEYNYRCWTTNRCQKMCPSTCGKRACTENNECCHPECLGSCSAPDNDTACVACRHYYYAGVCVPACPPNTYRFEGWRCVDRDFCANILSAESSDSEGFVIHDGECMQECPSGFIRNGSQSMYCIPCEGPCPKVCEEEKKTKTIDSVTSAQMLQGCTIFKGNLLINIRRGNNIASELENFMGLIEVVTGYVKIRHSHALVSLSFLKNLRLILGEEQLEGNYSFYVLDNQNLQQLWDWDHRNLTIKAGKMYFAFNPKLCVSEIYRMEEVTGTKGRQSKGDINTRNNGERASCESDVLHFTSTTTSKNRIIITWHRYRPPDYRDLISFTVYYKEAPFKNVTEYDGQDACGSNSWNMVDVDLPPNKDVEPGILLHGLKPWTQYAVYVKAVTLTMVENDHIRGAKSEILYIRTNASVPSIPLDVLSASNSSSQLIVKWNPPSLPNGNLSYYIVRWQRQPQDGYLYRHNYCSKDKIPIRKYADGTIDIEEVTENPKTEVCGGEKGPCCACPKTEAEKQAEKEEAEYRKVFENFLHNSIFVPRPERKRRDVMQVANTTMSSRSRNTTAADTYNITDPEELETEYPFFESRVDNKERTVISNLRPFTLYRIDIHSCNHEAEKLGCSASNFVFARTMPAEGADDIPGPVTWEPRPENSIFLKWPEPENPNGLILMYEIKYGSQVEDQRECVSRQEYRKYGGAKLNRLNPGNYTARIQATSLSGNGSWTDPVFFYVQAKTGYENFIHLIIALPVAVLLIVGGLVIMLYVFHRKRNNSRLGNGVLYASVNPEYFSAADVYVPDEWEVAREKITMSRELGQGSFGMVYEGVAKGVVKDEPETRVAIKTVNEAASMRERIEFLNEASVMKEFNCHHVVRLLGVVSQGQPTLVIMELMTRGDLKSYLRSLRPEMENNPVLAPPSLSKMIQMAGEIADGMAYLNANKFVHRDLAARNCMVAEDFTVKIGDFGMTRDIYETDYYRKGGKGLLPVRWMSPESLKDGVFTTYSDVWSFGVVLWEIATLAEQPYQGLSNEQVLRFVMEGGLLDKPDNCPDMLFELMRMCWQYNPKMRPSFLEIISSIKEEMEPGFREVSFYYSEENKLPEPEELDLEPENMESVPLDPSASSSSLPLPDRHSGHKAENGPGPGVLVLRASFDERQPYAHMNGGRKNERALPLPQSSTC

Structure (SMILES): CC(C)=CC[C@@H](O)C1=CC(=O)c2c(O)ccc(O)c2C1=O [shikonin]
- Phosphorylation of ribosomal protein S6 (p-ribosomal protein S6): remained almost unchanged; also recorded: no effect
- IC50 (IGF1R): 2600 nM
- Phosphorylation of Akt (p-Akt; U937 cells, 0.3 μM shikonin): significantly inhibits; also recorded: significantly decreased
- Cells in quadrant Q1 (p-Akt; [1]): 27.2%
- Cells in quadrant Q2 (p-Akt; [1]): 61.4%
- Cells in quadrant Q3 (p-Akt; [1]): 1.10%
- Cells in quadrant Q4 (p-Akt; [1]): 10.3%
